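GI50 is the concentration that inhibits growth by half. The concentration for full growth arrest is given as TGI.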
Columns and labels:
Assay in all cases: NCI anticancer screen, dose series, 384-well format
[1] = system: NCI-H460 NSCLC
[2] = system: SF-539 CNS
[3] = system: UO-31 renal
[4] = system: CCRF-CEM leukemia
[5] = system: HCT-116 colon
[6] = system: EKVX NSCLC
[7] = system: 786-0 renal
[8] = system: MDA-MB-468 breast
[9] = system: SF-295 CNS
[10] = system: A498 renal
[11] = system: K-562 leukemia
[12] = system: NCI-H522 lung
[13] = system: NCI-H226 lung

SMILES: C[C@]12CCCN1CC1=NNC(=O)c3cc(F)cc4[nH]c2c1c34
- GI50 [1]: 4.64 µM
- TGI [1]: 20.6 µM
- GI50 [2]: 14.2 µM
- TGI [2]: 33.9 µM
- GI50 [3]: 27.5 µM
- TGI [3]: 96.1 µM
- GI50 [4]: 14.4 µM
- TGI [4]: 27.8 µM
- GI50 [5]: 9 µM
- TGI [5]: 43.3 µM
- GI50 [6]: 20.2 µM
- TGI [6]: 51.6 µM
- GI50 [7]: 29 µM
- TGI [7]: > 80.9 µM
- GI50 [8]: 3.57 µM
- TGI [8]: 18.8 µM
- GI50 [9]: 10.7 µM
- TGI [9]: 51.9 µM
- GI50 [10]: 18.4 µM
- TGI [10]: 49 µM
- GI50 [11]: 38.6 µM
- TGI [11]: > 100 µM
- GI50 [12]: 16.8 µM
- TGI [12]: 44.6 µM
- GI50 [13]: 14.8 µM
- TGI [13]: 50.2 µM

— PubChem BioAssay (NCI)
